In ChEMBL document CHEMBL4673207, “Recent advances in the discovery of potent and selective HDAC6 inhibitors” (Eur J Med Chem, 2018) one finds Ratio IC50 and IC50 data, which are given here for seven molecules.

Where only a bound is given, the exact number is not on record here.

For test [1], the species on record is Homo sapiens. The experiment in a line: Selectivity ratio of IC50 for human HDAC3 to IC50 for human HDAC6.
Test [2] is filed under the species Homo sapiens. The test can be described thus: Selectivity ratio of IC50 for human HDAC10 to IC50 for human HDAC6.
For test [3], the species on record is Homo sapiens. The test can be described thus: Selectivity ratio of IC50 for human HDAC7 to IC50 for human HDAC6.
Test [4] is filed under the species Homo sapiens. The experiment in a line: Selectivity ratio of IC50 for human HDAC8 to IC50 for human HDAC6.
For test [5], the species on record is Homo sapiens. The test can be described thus: Selectivity ratio of IC50 for human HDAC11 to IC50 for human HDAC6.
The species named for test [6] is Homo sapiens. The experiment in a line: Selectivity ratio of IC50 for human HDAC1 to IC50 for human HDAC6.
For test [7], the species on record is Homo sapiens. The test can be described thus: Selectivity ratio of IC50 for human HDAC4 to IC50 for human HDAC6.
For test [8], the species on record is Homo sapiens. The experiment in a line: Selectivity ratio of IC50 for human HDAC2 to IC50 for human HDAC6.
For test [9], the species on record is Homo sapiens. The experiment in a line: Selectivity ratio of IC50 for human HDAC9 to IC50 for human HDAC6.
For test [10], the species on record is Homo sapiens. The experiment in a line: Selectivity ratio of IC50 for human HDAC5 to IC50 for human HDAC6.
Another test has as its system HCT-116. The test can be described thus: Antiproliferative activity against human HCT116 cells incubated for 72 hrs by MTT assay. Format: functional, cell-based. The settings on record: HCT-116, 72 h. A general note: Tetrazolium assays rely on reduction of a dye to a coloured formazan, in cell work by metabolically active cells.
Test [11] deals with T1, Histone deacetylase 2 (Homo sapiens, UniProt Q92769). The experiment in a line: Inhibition of human HDAC2 using p53 fluorogenic peptide (379 to 382 residues) RHKKAc as substrate by fluorescence-based assay.
T1 sequence (Q92769 whole entry, the tested form may be a part): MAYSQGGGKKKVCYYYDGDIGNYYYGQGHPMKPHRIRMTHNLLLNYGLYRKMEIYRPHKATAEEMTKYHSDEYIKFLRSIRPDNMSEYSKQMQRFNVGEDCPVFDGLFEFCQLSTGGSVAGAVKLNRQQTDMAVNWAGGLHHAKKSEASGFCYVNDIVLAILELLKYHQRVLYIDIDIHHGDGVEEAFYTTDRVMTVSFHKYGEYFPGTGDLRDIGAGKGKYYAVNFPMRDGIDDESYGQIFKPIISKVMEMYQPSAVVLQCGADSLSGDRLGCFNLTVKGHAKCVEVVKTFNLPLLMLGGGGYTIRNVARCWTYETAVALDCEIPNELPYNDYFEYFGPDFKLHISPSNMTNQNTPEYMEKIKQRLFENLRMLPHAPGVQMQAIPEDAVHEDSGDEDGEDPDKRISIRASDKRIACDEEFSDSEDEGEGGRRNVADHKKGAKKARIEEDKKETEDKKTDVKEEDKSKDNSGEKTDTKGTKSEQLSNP
The test system of the next test is PC-3. The test can be described thus: Antiproliferative activity against human PC3 cells incubated for 72 hrs by MTT assay. It is filed as functional, cell-based. Conditions: PC-3, 72 h.
In test [12] the target is T2, Protein deacetylase HDAC6 (Homo sapiens, UniProt Q9UBN7).
T2 sequence (Q9UBN7 whole entry): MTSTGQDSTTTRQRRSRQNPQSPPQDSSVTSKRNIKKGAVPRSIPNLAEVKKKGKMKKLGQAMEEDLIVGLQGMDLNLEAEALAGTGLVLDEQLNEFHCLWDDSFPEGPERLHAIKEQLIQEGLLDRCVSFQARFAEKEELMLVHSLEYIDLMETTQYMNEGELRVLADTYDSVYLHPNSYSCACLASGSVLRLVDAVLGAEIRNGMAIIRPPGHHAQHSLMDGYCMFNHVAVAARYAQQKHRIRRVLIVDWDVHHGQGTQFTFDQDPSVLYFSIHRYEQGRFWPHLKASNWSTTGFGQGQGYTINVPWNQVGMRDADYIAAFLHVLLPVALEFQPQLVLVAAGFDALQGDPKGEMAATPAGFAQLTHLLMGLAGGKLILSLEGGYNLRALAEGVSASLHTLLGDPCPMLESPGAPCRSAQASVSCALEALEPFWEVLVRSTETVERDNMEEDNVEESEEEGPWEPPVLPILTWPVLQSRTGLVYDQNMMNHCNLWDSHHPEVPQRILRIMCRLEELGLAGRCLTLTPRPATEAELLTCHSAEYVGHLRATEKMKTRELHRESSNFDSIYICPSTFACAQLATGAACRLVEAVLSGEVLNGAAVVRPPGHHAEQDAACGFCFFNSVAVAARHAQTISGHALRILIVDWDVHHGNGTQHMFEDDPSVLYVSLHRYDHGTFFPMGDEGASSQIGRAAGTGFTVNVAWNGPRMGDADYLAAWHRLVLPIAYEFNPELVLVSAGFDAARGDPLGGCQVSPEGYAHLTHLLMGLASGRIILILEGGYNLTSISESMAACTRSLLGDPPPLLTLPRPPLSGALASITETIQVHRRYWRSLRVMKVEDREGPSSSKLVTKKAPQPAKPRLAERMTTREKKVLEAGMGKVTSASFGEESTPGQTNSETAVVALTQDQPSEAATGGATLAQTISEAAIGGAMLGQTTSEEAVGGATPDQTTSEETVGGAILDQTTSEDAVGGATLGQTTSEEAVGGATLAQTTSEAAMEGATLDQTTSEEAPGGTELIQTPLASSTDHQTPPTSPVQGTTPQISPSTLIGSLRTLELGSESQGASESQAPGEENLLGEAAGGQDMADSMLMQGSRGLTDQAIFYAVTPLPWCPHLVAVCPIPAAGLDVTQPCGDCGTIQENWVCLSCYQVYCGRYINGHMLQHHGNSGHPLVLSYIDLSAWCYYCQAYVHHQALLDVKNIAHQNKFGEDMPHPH
The experiment in a line: Inhibition of human HDAC6 using p53 fluorogenic peptide (379 to 382 residues) RHKKAc as substrate by fluorescence-based assay.

For test [13], the target named is T3, Histone deacetylase 1 (Homo sapiens, UniProt Q13547). The experiment in a line: Inhibition of human HDAC1 using p53 fluorogenic peptide (379 to 382 residues) RHKKAc as substrate by fluorescence-based assay.
T3 sequence (Q13547 whole entry, the tested form may be a part): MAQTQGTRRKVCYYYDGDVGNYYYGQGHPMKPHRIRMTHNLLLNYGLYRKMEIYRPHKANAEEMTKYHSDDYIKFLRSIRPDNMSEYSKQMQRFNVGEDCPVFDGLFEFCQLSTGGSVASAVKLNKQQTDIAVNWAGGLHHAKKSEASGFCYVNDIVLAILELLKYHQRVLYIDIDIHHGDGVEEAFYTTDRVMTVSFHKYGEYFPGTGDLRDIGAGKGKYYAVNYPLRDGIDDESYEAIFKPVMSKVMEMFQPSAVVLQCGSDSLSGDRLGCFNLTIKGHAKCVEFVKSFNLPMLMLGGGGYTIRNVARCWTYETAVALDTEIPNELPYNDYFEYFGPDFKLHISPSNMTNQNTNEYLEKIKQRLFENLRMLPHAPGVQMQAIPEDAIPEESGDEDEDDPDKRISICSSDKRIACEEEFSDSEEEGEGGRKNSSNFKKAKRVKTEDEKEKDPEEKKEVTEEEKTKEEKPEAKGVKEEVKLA
For test [14], the target named is T4, Histone deacetylase 8 (Homo sapiens, UniProt Q9BY41). The test can be described thus: Inhibition of human HDAC8 using fluorogenic HDAC substrate incubated for 60 mins by fluorimetry.
T4 sequence (Q9BY41 whole entry): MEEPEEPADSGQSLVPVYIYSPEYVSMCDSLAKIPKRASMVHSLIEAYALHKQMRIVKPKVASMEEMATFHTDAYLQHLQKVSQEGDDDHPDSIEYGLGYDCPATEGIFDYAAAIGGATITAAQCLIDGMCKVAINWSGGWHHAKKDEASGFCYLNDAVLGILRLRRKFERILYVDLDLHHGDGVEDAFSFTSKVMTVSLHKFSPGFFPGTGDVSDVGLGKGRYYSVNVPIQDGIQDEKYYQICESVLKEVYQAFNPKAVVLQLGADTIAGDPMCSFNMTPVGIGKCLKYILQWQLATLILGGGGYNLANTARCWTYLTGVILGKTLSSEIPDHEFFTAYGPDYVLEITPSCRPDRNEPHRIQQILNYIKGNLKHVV
The target of test [15] is T5, Polyamine deacetylase HDAC10 (Homo sapiens, UniProt Q969S8).
T5 sequence (Q969S8 whole entry): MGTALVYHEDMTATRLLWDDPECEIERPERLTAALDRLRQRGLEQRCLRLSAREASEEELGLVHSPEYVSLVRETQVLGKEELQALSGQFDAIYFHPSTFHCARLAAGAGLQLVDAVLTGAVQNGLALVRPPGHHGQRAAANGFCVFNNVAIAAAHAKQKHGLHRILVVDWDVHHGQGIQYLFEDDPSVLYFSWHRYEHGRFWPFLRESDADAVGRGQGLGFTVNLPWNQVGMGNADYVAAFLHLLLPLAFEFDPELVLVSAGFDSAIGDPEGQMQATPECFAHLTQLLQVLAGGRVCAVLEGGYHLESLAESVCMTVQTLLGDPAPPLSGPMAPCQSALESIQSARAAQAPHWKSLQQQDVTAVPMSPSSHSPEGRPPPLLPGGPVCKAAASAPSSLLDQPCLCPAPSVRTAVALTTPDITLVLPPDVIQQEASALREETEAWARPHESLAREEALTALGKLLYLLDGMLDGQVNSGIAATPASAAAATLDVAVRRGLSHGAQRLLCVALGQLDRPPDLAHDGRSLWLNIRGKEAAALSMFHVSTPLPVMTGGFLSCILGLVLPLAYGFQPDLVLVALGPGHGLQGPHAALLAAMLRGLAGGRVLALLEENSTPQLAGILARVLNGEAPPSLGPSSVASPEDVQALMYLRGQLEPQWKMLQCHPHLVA
The test can be described thus: Inhibition of human HDAC10 using fluorogenic HDAC substrate incubated for 45 mins by fluorimetry.

Test [16] addresses T6, Histone deacetylase 3 (Homo sapiens, UniProt O15379). The test can be described thus: Inhibition of human HDAC3 using fluorogenic HDAC substrate incubated for 10 mins by spectrophotometric method.
Test [17] has as its target T7, Histone deacetylase 9 (Homo sapiens, UniProt Q9UKV0). The experiment in a line: Inhibition of human HDAC9 using fluorogenic HDAC substrate incubated for 30 mins by fluorimetry.
In test [18] the target is T1, Histone deacetylase 2. The test can be described thus: Inhibition of human HDAC2 using fluorogenic HDAC substrate incubated for 15 mins by fluorimetry.
In test [19] the target is T8, Histone deacetylase 5 (Homo sapiens, UniProt Q9UQL6). The test can be described thus: Inhibition of human HDAC5 using fluorogenic HDAC substrate incubated for 30 mins by fluorimetry.
T8 sequence (Q9UQL6 whole entry): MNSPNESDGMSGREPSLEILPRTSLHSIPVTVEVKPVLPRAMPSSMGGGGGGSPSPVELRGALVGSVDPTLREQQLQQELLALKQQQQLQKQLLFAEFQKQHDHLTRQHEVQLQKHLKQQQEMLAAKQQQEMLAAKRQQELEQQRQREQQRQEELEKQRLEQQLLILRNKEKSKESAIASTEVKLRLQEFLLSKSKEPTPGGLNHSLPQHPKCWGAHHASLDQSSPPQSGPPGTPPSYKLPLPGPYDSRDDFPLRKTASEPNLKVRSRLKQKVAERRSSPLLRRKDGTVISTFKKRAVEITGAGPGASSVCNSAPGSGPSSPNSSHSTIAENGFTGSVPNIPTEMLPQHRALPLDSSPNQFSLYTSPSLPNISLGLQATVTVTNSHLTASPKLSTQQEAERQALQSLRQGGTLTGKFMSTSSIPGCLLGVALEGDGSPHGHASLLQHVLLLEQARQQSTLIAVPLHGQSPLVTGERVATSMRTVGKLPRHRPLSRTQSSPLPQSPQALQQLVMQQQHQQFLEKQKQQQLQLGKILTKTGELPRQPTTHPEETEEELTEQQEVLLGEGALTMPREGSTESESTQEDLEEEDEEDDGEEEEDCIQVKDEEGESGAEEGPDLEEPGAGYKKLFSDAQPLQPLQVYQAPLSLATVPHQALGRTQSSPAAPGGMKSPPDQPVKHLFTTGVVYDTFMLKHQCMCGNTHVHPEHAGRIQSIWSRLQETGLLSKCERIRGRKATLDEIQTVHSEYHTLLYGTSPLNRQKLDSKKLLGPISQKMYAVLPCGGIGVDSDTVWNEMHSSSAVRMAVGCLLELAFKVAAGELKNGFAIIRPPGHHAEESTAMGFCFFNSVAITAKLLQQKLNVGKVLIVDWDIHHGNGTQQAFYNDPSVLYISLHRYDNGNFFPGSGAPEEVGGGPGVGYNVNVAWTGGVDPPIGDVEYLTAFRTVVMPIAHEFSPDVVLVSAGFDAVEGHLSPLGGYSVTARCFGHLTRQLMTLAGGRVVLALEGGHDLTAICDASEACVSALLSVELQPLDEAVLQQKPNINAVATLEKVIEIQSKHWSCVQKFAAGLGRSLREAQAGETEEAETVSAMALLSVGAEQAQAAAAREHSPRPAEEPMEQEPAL
The target of test [20] is T9, Histone deacetylase 11 (Homo sapiens, UniProt Q96DB2). The experiment in a line: Inhibition of human HDAC11 using fluorogenic HDAC substrate incubated for 30 mins by fluorescence method.
T9 sequence (Q96DB2 whole entry): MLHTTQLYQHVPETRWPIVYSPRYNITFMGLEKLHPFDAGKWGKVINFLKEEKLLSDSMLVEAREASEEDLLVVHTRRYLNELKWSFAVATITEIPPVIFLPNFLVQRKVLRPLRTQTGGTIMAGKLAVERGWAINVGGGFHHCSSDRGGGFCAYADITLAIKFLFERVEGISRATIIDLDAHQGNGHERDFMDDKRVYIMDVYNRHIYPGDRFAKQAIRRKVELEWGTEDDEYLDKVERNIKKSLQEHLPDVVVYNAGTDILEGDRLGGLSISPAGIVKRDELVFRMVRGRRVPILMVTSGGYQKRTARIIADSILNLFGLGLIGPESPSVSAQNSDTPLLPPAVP
Test [21] deals with T3, Histone deacetylase 1. The test can be described thus: Inhibition of human HDAC1 using fluorogenic HDAC substrate incubated for 15 mins by fluorimetry.
In test [22] the target is T10, Histone deacetylase 4 (Homo sapiens, UniProt P56524). The test can be described thus: Inhibition of human HDAC4 using fluorogenic HDAC substrate incubated for 30 mins by fluorimetry.
The target in test [23] is T2, Protein deacetylase HDAC6. The experiment in a line: Inhibition of human HDAC6 using fluorogenic HDAC substrate incubated for 30 mins by fluorimetry.
In test [24] the target is T2, Protein deacetylase HDAC6. The experiment in a line: Inhibition of recombinant human HDAC6 expressed in baculovirus infected sf9 cells using fluor-de-Lys-SIRT1 as substrate by fluorescence method.
The target of a further test is Histone deacetylase. The experiment in a line: Inhibition of HDAC in human HeLa cell extracts using Fluor de lys as substrate incubated for 30 mins by fluorimetric analysis.
For test [25], the target named is T1, Histone deacetylase 2. The experiment in a line: Inhibition of human full-length recombinant HDAC2 using fluorogenic peptide ([…] residues) (RHKK(Ac)) as substrate by fluorescence method.
The target in test [26] is T3, Histone deacetylase 1. The test can be described thus: Inhibition of human full-length recombinant HDAC1 using p53 fluorogenic peptide ([…] residues) (RHKK(Ac)) as substrate by fluorescence method.
Test [27] concerns the target T2, Protein deacetylase HDAC6. The test can be described thus: Inhibition of human full-length recombinant HDAC6 using fluorogenic peptide […] (RHKK(Ac)) as substrate by fluorescence method.
The target of test [28] is T5, Polyamine deacetylase HDAC10. The experiment in a line: Inhibition of HDAC10 (unknown origin).
Test [29] has as its target T7, Histone deacetylase 9. The experiment in a line: Inhibition of HDAC9 (unknown origin).
In test [30] the target is T9, Histone deacetylase 11. The test can be described thus: Inhibition of HDAC11 (unknown origin).
For test [31], the target named is T8, Histone deacetylase 5. The test can be described thus: Inhibition of HDAC5 (unknown origin).
The target in test [32] is T1, Histone deacetylase 2. The test can be described thus: Inhibition of HDAC2 (unknown origin).
The target of test [33] is T6, Histone deacetylase 3. The test can be described thus: Inhibition of HDAC3 (unknown origin).
For test [34], the target named is T2, Protein deacetylase HDAC6. The experiment in a line: Inhibition of HDAC6 (unknown origin).
Test [35] deals with T10, Histone deacetylase 4. The test can be described thus: Inhibition of HDAC4 (unknown origin).
Test [36] deals with T4, Histone deacetylase 8. The test can be described thus: Inhibition of HDAC8 (unknown origin).
The target in test [37] is T3, Histone deacetylase 1. The experiment in a line: Inhibition of HDAC1 (unknown origin).

As usually defined, the IC50 is the midpoint of a concentration-inhibition curve.

T6 sequence (O15379 whole entry): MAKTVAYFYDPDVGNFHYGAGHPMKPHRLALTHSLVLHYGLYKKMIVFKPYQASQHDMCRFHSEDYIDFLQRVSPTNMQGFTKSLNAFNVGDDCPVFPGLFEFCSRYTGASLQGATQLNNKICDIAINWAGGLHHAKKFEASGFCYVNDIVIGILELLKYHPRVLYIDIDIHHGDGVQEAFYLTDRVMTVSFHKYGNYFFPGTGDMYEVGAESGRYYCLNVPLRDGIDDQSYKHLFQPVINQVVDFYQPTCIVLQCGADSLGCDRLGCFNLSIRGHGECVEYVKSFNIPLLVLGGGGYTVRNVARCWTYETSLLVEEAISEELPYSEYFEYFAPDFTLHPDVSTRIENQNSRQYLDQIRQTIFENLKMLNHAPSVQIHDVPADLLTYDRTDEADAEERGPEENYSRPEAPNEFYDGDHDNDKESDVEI
T7 sequence (Q9UKV0 whole entry): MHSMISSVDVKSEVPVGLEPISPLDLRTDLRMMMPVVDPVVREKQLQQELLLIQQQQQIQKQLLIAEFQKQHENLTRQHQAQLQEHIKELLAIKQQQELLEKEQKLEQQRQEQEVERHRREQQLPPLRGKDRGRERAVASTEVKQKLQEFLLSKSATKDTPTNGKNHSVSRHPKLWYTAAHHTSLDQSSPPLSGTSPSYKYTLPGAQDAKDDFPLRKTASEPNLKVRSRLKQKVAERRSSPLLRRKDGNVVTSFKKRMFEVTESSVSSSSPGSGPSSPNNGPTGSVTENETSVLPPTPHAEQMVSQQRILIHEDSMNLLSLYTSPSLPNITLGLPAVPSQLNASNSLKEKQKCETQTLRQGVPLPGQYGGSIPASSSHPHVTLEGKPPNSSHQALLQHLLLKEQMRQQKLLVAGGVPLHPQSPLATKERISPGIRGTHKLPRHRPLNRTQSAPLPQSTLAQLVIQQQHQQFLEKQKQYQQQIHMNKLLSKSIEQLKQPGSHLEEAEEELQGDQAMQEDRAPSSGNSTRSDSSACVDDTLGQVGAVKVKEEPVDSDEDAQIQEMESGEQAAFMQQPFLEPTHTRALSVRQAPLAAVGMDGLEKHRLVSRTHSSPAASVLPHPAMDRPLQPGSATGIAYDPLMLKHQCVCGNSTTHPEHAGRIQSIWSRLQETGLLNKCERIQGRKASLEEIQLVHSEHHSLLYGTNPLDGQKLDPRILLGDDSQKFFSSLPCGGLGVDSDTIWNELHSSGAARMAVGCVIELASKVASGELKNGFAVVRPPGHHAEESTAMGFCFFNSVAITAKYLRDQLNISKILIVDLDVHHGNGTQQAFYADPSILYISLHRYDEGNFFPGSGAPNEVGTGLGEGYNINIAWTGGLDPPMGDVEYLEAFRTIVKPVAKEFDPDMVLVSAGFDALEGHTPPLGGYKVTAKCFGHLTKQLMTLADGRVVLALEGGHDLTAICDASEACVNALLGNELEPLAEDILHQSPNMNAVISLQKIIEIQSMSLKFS

Take `O=C(NO)c1ccc(NCc2csc3ccccc23)cc1`: the Ratio IC50 in the test filed under Homo sapiens [1], in the test filed under Homo sapiens [2], in the test listed under Homo sapiens [3], in the test listed under Homo sapiens [4], in the test filed under Homo sapiens [5] and in the test filed under Homo sapiens [6] was above 100 each time. The Ratio IC50 in the test filed under Homo sapiens [7], in the test filed under Homo sapiens [8], in the test filed under Homo sapiens [9] and in the test listed under Homo sapiens [10] was above 100 each time.
With `O=C(NO)c1ccc(Cn2c(=O)c(F)cn(C3CCCO3)c2=O)cc1` (configuration not stated), the IC50 came to 8080 nM in the test on HCT-116; 5500 nM against Histone deacetylase 2 [11]; 11400 nM in the test on PC-3; 12.4 nM in test [12]; 1710 nM against Histone deacetylase 1 [13].
Regarding `O=C(NO)c1ccc(Cn2c3c(c4ccccc42)CS(=O)(=O)CC3)cc1`, the figures for the Ratio IC50 in the test listed under Homo sapiens [6] and in the test listed under Homo sapiens [7] were 5790 and 842, respectively.
Regarding `O=C(NO)c1ccc(Cn2c3c(c4ccccc42)S(=O)(=O)CC3)cc1`, the IC50 at Histone deacetylase 8 [14] is 1000 nM; in test [15] it was above 5000 nM; against Histone deacetylase 3 [16], above 5000 nM; at Histone deacetylase 9 [17], 100 nM; on Histone deacetylase 2 [18], above 5000 nM; against Histone deacetylase 5 [19] it was 1000 nM. The IC50 is above 5000 nM against Histone deacetylase 11 [20], above 5000 nM at Histone deacetylase 1 [21], 1000 nM on Histone deacetylase 4 [22] and 8.2 nM in test [23].
For the molecule `COc1cc(C(=O)OCCCCCCCOC(=O)c2ccc(O)c(OC)c2)ccc1O`, the IC50 in test [24] amounted to 200 nM.
With `O=C(/C=C/c1cccn(CCCc2ccc3ccccc3c2)c1=O)NO`, the IC50 on Histone deacetylase came to 70 nM; on Histone deacetylase 2 [25], 128 nM; on Histone deacetylase 1 [26] it was 19.4 nM; in [27] it was 2.46 nM.
Regarding `O=C(NO)c1ccc(CN2c3ccccc3S(=O)(=O)C[C@@H]3CCCC[C@@H]32)cc1`, the IC50 is above 8000 nM in test [28]; above 8000 nM at Histone deacetylase 9 [29]; 2400 nM against Histone deacetylase 11 [30]; above 8000 nM against Histone deacetylase 5 [31]; above 8000 nM against Histone deacetylase 2 [32]; above 8000 nM at Histone deacetylase 3 [33]. Also, the IC50 in test [34] was 8 nM; on Histone deacetylase 4 [35], above 8000 nM; at Histone deacetylase 8 [36], 1100 nM; against Histone deacetylase 1 [37], above 8000 nM.
